Experimental data taken from the supplement of paper PMC10733146.

Columns and labels:
Test in all cases: viability relative to DMSO control (fraction); higher = less drug effect (more viable cells)
Details in all cases: 48 h
Rigosertib = compound: COc1cc(OC)c(/C=C/S(=O)(=O)Cc2ccc(OC)c(NCC(=O)O)c2)c(OC)c1 [Rigosertib]
In short: (§1)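 Cells were incubated for 48 h at 37 °C and 5% CO2 in RPMI-1640 with penicillin/streptomycin, L-glutamine and human serum, at 4 × 10^4 cells per well in 384-well plates with compounds pre-plated at five concentrations, one well each. These were primary mononuclear tumour cells, fresh or cryopreserved, Ficoll-isolated from blood or bone marrow or obtained from processed lymph node. Viability values are CellTiter-Glo luminescence relative to the median of 16 inner DMSO wells.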

Pacritinib = compound: C1=N/C2=N/c3ccc(OCCN4CCCC4)c(c3)COC/C=C/COCc3cccc(c3)C(=C1)N2 [Pacritinib]
In short: as §1

Bortezomib = compound: CC(C)C[C@H](NC(=O)[C@H](Cc1ccccc1)NC(=O)c1cnccn1)B(O)O [Bortezomib]
In short: as §1

Obatoclax mesylate = compound: COC1=CC(c2cc3ccccc3[nH]2)=N/C1=C\c1[nH]c(C)cc1C [Obatoclax mesylate]
In short: as §1

Nilotinib = compound: Cc1cn(-c2cc(NC(=O)c3ccc(C)c(Nc4nccc(-c5cccnc5)n4)c3)cc(C(F)(F)F)c2)cn1 [Nilotinib]
In short: as §1

Pentostatin = compound: OC[C@H]1O[C@@H](n2cnc3c2N=CNC[C@H]3O)C[C@@H]1O [Pentostatin]
In short: as §1

BEZ235 = compound: Cn1c(=O)n(-c2ccc(C(C)(C)C#N)cc2)c2c3cc(-c4cnc5ccccc5c4)ccc3ncc21 [BEZ235]
In short: as §1

Nelarabine = compound: COc1nc(N)nc2c1ncn2[C@@H]1O[C@H](CO)[C@@H](O)[C@@H]1O [Nelarabine]
In short: as §1

Vincristine = compound: CC[C@]1(O)C[C@H]2CN(CCc3c([nH]c4ccccc34)[C@@](C(=O)OC)(c3cc4c(cc3OC)N(C=O)[C@H]3[C@@](O)(C(=O)OC)[C@H](OC(C)=O)[C@]5(CC)C=CCN6CC[C@]43[C@@H]65)C2)C1 [Vincristine]
In short: as §1

8-Azaguanin = compound: Nc1nc2n[nH]nc2c(=O)[nH]1 [8-Azaguanin]
In short: as §1

Pralatrexate = compound: C#CCC(Cc1cnc2nc(N)nc(N)c2n1)c1ccc(C(=O)N[C@@H](CCC(=O)O)C(=O)O)cc1 [Pralatrexate]
In short: as §1

AG-221 (Enasidinib) = compound: CC(C)(O)CNc1nc(Nc2ccnc(C(F)(F)F)c2)nc(-c2cccc(C(F)(F)F)n2)n1 [AG-221 (Enasidinib)]
In short: as §1

TMP269 = compound: O=C(NCC1(c2nc(-c3ccccc3)cs2)CCOCC1)c1cccc(-c2noc(C(F)(F)F)n2)c1 [TMP269]
In short: as §1

Imatinib = compound: Cc1ccc(NC(=O)c2ccc(CN3CCN(C)CC3)cc2)cc1Nc1nccc(-c2cccnc2)n1 [Imatinib]
In short: as §1

Vorinostat = compound: O=C(CCCCCCC(=O)Nc1ccccc1)NO [Vorinostat]
In short: as §1

Test System: primary AML patient cells (S017)
- viability (Rigosertib; 0.008 µM): 0.988
- viability (Rigosertib; 0.04 µM): 0.968
- viability (Rigosertib; 0.2 µM): 0.945
- viability (Rigosertib; 1 µM): 0.949
- viability (Rigosertib; 5 µM): 0.954
- viability (Pacritinib; 0.024 µM): 1.02
- viability (Pacritinib; 0.12 µM): 1.17
- viability (Pacritinib; 0.6 µM): 0.992
- viability (Pacritinib; 3 µM): 0.378
- viability (Pacritinib; 15 µM): 0.028
- viability (Bortezomib; 0.008 µM): 0.937
- viability (Bortezomib; 0.04 µM): 1.1
- viability (Bortezomib; 0.2 µM): 0.995
- viability (Bortezomib; 1 µM): 1.07
- viability (Bortezomib; 5 µM): 1.03
- viability (Obatoclax mesylate; 0.024 µM): 1.04
- viability (Obatoclax mesylate; 0.12 µM): 1
- viability (Obatoclax mesylate; 0.6 µM): 0.987
- viability (Obatoclax mesylate; 3 µM): 0.87
- viability (Obatoclax mesylate; 15 µM): 0.421
- viability (Nilotinib; 0.016 µM): 1.14
- viability (Nilotinib; 0.08 µM): 0.991
- viability (Nilotinib; 0.4 µM): 1.12
- viability (Nilotinib; 2 µM): 1.06
- viability (Nilotinib; 10 µM): 1.12
- viability (Pentostatin; 0.03 µM): 0.829
- viability (Pentostatin; 0.15 µM): 0.994
- viability (Pentostatin; 0.75 µM): 1.04
- viability (Pentostatin; 3.75 µM): 0.972
- viability (Pentostatin; 18.76 µM): 0.842
- viability (BEZ235; 0.024 µM): 0.948
- viability (BEZ235; 0.12 µM): 1.02
- viability (BEZ235; 0.6 µM): 0.919
- viability (BEZ235; 3 µM): 0.969
- viability (BEZ235; 15 µM): 0.604
- viability (Nelarabine; 0.024 µM): 1.01
- viability (Nelarabine; 0.12 µM): 1.02
- viability (Nelarabine; 0.6 µM): 0.981
- viability (Nelarabine; 3 µM): 1.08
- viability (Nelarabine; 15 µM): 0.882
- viability (Vincristine; 0.016 µM): 0.944
- viability (Vincristine; 0.08 µM): 1.14
- viability (Vincristine; 0.4 µM): 0.809
- viability (Vincristine; 2 µM): 0.885
- viability (Vincristine; 10 µM): 0.665
- viability (8-Azaguanin; 0.032 µM): 1.03
- viability (8-Azaguanin; 0.16 µM): 0.984
- viability (8-Azaguanin; 0.8 µM): 0.818
- viability (8-Azaguanin; 4 µM): 0.559
- viability (8-Azaguanin; 20 µM): 0.401
- viability (Pralatrexate; 0.024 µM): 0.979
- viability (Pralatrexate; 0.12 µM): 0.952
- viability (Pralatrexate; 0.6 µM): 1.05
- viability (Pralatrexate; 3 µM): 1.04
- viability (Pralatrexate; 15 µM): 1.1
- viability (AG-221 (Enasidinib); 0.024 µM): 0.984
- viability (AG-221 (Enasidinib); 0.12 µM): 0.961
- viability (AG-221 (Enasidinib); 0.6 µM): 1.1
- viability (AG-221 (Enasidinib); 3 µM): 0.951
- viability (AG-221 (Enasidinib); 15 µM): 0.808
- viability (TMP269; 0.024 µM): 1.05
- viability (TMP269; 0.12 µM): 1
- viability (TMP269; 0.6 µM): 1.06
- viability (TMP269; 3 µM): 1.02
- viability (TMP269; 15 µM): 0.959
- viability (Imatinib; 0.08 µM): 0.997
- viability (Imatinib; 0.4 µM): 1.08
- viability (Imatinib; 10 µM): 1.07
- viability (Vorinostat; 0.016 µM): 1.03
- viability (Vorinostat; 0.08 µM): 0.989
- viability (Vorinostat; 0.4 µM): 0.825
- viability (Vorinostat; 2 µM): 0.226
- viability (Vorinostat; 10 µM): 0.141

Test System: primary FL patient cells (S022)
- viability (Rigosertib; 0.008 µM): 1.02
- viability (Rigosertib; 0.04 µM): 0.951
- viability (Rigosertib; 0.2 µM): 1.02
- viability (Rigosertib; 1 µM): 0.919
- viability (Rigosertib; 5 µM): 0.865
- viability (Pacritinib; 0.024 µM): 0.96
- viability (Pacritinib; 0.12 µM): 1.09
- viability (Pacritinib; 0.6 µM): 0.998
- viability (Pacritinib; 3 µM): 0.429
- viability (Pacritinib; 15 µM): 0.0378
- viability (Bortezomib; 0.008 µM): 1
- viability (Bortezomib; 0.04 µM): 1.05
- viability (Bortezomib; 0.2 µM): 0.957
- viability (Bortezomib; 1 µM): 0.931
- viability (Bortezomib; 5 µM): 0.885
- viability (Obatoclax mesylate; 0.024 µM): 1.04
- viability (Obatoclax mesylate; 0.12 µM): 0.971
- viability (Obatoclax mesylate; 0.6 µM): 0.71
- viability (Obatoclax mesylate; 3 µM): 0.486
- viability (Obatoclax mesylate; 15 µM): 0.109
- viability (Nilotinib; 0.016 µM): 0.974
- viability (Nilotinib; 0.08 µM): 1.1
- viability (Nilotinib; 0.4 µM): 0.985
- viability (Nilotinib; 2 µM): 0.933
- viability (Nilotinib; 10 µM): 1.03
- viability (Pentostatin; 0.03 µM): 1.1
- viability (Pentostatin; 0.15 µM): 0.939
- viability (Pentostatin; 0.75 µM): 1.13
- viability (Pentostatin; 3.75 µM): 0.877
- viability (Pentostatin; 18.76 µM): 1.02
- viability (BEZ235; 0.024 µM): 0.885
- viability (BEZ235; 0.12 µM): 0.977
- viability (BEZ235; 0.6 µM): 0.887
- viability (BEZ235; 3 µM): 0.827
- viability (BEZ235; 15 µM): 0.153
- viability (Nelarabine; 0.024 µM): 1.03
- viability (Nelarabine; 0.12 µM): 1.1
- viability (Nelarabine; 0.6 µM): 0.93
- viability (Nelarabine; 3 µM): 0.902
- viability (Nelarabine; 15 µM): 0.811
- viability (Vincristine; 0.016 µM): 0.479
- viability (Vincristine; 0.08 µM): 0.448
- viability (Vincristine; 0.4 µM): 0.377
- viability (Vincristine; 2 µM): 0.349
- viability (Vincristine; 10 µM): 0.255
- viability (8-Azaguanin; 0.032 µM): 0.987
- viability (8-Azaguanin; 0.16 µM): 1.01
- viability (8-Azaguanin; 0.8 µM): 0.843
- viability (8-Azaguanin; 4 µM): 0.582
- viability (8-Azaguanin; 20 µM): 0.363
- viability (Pralatrexate; 0.024 µM): 1
- viability (Pralatrexate; 0.12 µM): 0.996
- viability (Pralatrexate; 0.6 µM): 1
- viability (Pralatrexate; 3 µM): 1.04
- viability (Pralatrexate; 15 µM): 1.02
- viability (AG-221 (Enasidinib); 0.024 µM): 0.807
- viability (AG-221 (Enasidinib); 0.12 µM): 0.799
- viability (AG-221 (Enasidinib); 0.6 µM): 0.781
- viability (AG-221 (Enasidinib); 3 µM): 0.67
- viability (AG-221 (Enasidinib); 15 µM): 0.687
- viability (TMP269; 0.024 µM): 1.22
- viability (TMP269; 0.12 µM): 0.977
- viability (TMP269; 0.6 µM): 1.2
- viability (TMP269; 3 µM): 0.958
- viability (TMP269; 15 µM): 0.915
- viability (Imatinib; 0.08 µM): 1.06
- viability (Imatinib; 0.4 µM): 1.05
- viability (Imatinib; 2 µM): 0.946
- viability (Imatinib; 10 µM): 0.909
- viability (Vorinostat; 0.016 µM): 0.992
- viability (Vorinostat; 0.08 µM): 0.932
- viability (Vorinostat; 0.4 µM): 0.874
- viability (Vorinostat; 2 µM): 0.795
- viability (Vorinostat; 10 µM): 0.26
